# Reference: patent publication US5661136A, “2-halo-2'-fluoro ARA adenosines as antinoplastic agents” (priority 1994, dated 1997)
# Read-outs that look alike come from different tables or passages of the source.
# Tests used:
# [1] = biological target: T1, ribonucleotide reductase (Homo sapiens, UniProt P23921); details: cited from earlier work; for inhibition of ribonucleotide reductase (in words): 5'-triphosphate of the nucleoside analogue
# T1 sequence (P23921 1-792): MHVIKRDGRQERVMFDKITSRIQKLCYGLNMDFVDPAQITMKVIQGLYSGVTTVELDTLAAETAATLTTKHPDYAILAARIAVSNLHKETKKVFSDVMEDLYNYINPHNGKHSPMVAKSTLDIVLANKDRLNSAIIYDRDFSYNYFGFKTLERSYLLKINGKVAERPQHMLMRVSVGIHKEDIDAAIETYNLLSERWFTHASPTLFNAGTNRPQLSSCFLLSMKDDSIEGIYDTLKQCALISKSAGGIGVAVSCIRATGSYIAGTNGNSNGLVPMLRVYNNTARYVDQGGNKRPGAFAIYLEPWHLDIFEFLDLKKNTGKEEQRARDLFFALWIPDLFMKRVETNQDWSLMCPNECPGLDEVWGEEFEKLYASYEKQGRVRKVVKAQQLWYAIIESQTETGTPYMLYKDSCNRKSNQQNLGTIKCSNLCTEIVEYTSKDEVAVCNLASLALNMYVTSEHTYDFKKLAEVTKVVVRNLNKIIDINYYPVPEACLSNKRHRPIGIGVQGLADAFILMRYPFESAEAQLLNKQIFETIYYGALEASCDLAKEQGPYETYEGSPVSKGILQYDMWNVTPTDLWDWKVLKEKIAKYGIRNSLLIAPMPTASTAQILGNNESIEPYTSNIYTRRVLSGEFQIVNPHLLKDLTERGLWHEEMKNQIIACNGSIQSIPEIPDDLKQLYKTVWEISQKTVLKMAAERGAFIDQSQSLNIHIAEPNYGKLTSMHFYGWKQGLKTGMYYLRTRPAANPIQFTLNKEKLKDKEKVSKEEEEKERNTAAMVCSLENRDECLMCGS
# [2] = test system: CCRF-CEM; assay: Cytotoxicity, inhibition of cell proliferation to 50% of untreated controls; type: cell-based, human; details: read-out: Cytotoxicity as IC50, CCRF-CEM
# Excerpt: (§1) In contrast to the previously reported 2'-substituted 9-β-D-arabinofuranosyl-2-haloadenines, the 2'-fluoro compounds were quite cytotoxic to three human cell lines, H.Ep.-2, CCRF-CEM, and K562, and the murine lukemia line, L1210.
# (§2) Obviously, to be useful as anticancer agents, the nucleosides of the present invention must show the ability to kill cells in vitro. […] One cell line (L1210) is a murine lukemia, whereas the other three are human neoplasms. […] Many people today emphasize the importance of toxicity to human cell lines.
# [3] = test system: H.Ep.-2; assay: as above; type: cell-based, human
# Excerpt: as §1, §2
# [4] = test system: L1210; assay: as above; type: cell-based; details: Mus musculus; L1210 murine leukemia line; read-out: Cytotoxicity as IC50, L1210
# Excerpt: as §1, §2
# [5] = biological target: E. coli purine nucleoside phosphorylase (Escherichia coli, UniProt P0ABP8); assay: Phosphorolysis of nucleosides by purine nucleoside phosphorylase; type: biochemical; details: 0.5 mM nucleoside, 50 mM pH 8.0 phosphate buffer, HPLC, incubation 30-240 min, read-out: % Cleavage
# Sequence of E. coli purine nucleoside phosphorylase (P0ABP8 2-239): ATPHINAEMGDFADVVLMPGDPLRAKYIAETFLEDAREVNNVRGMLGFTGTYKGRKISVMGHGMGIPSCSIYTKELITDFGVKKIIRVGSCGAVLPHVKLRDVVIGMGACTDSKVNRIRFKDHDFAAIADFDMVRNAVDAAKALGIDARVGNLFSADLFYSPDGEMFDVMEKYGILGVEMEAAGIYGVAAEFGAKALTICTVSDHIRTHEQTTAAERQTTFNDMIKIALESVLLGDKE
# Excerpt: Subsequently, the phosphorolysis of these compounds were compared by E. coli purine nucleoside phosphorylase. The […] and 2'-deoxyribonucleosides are rapidly cleaved by this enzyme, whereas the […] nucleosides substituted at 2' by Cl, N3, or NH2 are almost completely resistant. The 2'-fluoro compounds are less resistant to cleavage, being cleaved at roughly one-third the rate of the […] and 2'-deoxynucleosides. This reduction in cleavage rate may be acceptable for pharmaceutical purposes as phosphorylation in mammalian cells is quite rapid.
# More specifically, an enzyme reaction mixture consisting of 0.5 mM nucleoside substrate, 50 mM pH 8.0 phosphate buffer and purine nucleoside phosphorylase in a final volume of 1.0 mL was allowed to incubate for 30, 60, 120, 180 and 240 minutes, and the amounts of nucleoside and substrate remaining were determined by HPLC.
# [6] = test system: K562; assay: Cytotoxicity, inhibition of cell proliferation to 50% of untreated controls; type: cell-based, human
# Excerpt: as §1, §2
# [7] = test system: P388 leukemia; assay: In vivo activity vs ip P388 leukemia, ip administration; design: species or system CD2F1 mice
# Excerpt: This, coupled with the lower toxicity of the cleavage product, 2-chloroadenine, relative to 2-fluoroadenine, make this compound a preferred compound of the present invention. The following Table III provides a summary of the in vivo activity of the 9-(2-fluoro-2-deoxy-β-D-arabinofuranosyl)-2-haloadenines vs P388 leukemia cell line in which CD2F1 mice were implanted ip with 10^6 P388 leukemia cells on day 0 in accordance with the protocol of Waud et al [Cancer Res. 50:3232 (1990)].
# In the above table, the optimal dose refers to mg/kg/dose (≤LD50); ILS refers to the increase in life span; and the log change refers to the change in viable tumor cell population at the end of therapy compared to that at the start of therapy, based on the median day of death among the animals that died. The data in this table is presented in accordance with the National Cancer Institute activity criteria for drug testing in which an ILS of 20-74% is considered moderate activity, and an ILS of 75% or more is considered good activity.
# [8] = test system: P388 leukemia; assay: Antitumor activity against ip P388 leukemia, oral administration; type: in vivo, mice; details: oral 67 mg/kg/dose
# Procedure: In a similar test, compound 3d was administered orally and evaluated for antitumor activity against ip P388 leukemia cells. As the data in Table III indicates, the optimal regimen for the compound, administered ip, is in divided doses five on days 1, 5, and 9, a similar schedule was selected for the oral administration of this compound. In this set of experiments, an oral dosage of 67 mg/kg/dose, given q 6 h×4 on days 1, 5, and 9, effected a reduction in tumor burden of 1.7 log10 units, a figure which is approximately 2.5 log10 units less that that obtained in studies using ip drug administration.
# [9] = test system: K562 cells; details: cited from earlier work
# [10] = relative to 9-β-D-arabinofuranosyl-2-fluoroadenine; cited from earlier work
# [11] = HEp-2, H.Ep.-2 human cell line, read-out: Cytotoxicity as IC50, H.Ep.-2
# [12] = K562 human cell line, read-out: Cytotoxicity as IC50, K562
# [13] = 30 mg/kg/dose ip, q 3 h × 8 (Days 1, 5, 9)
# [14] = 50 mg/kg/dose ip, q 3 h × 8 (Days 1, 5, 9)
# [15] = 20 mg/kg/dose ip, q 3 h × 8 (Days 1, 5, 9)
# [16] = 25 mg/kg/dose ip, q 3 h × 8 (Days 1, 5, 9)
compound,measurement,setting,value
Nc1nc(Cl)nc2c1ncn2[C@@H]1O[C@H](COP(=O)(O)OP(=O)(O)OP(=O)(O)O)[C@@H](O)[C@@H]1F [2-chloro-9-(2-deoxy-2-fluoro-β-D-arabinofuranosyl)adenine 5'triphosphate],inhibition of ribonucleotide reductase (in words),[1],the same as that seen with 2-chloro-2'-deoxyadenosine 5'-triphosphate
Nc1nc(F)nc2c1ncn2[C@@H]1O[C@H](COP(=O)(O)OP(=O)(O)OP(=O)(O)O)[C@@H](O)[C@@H]1O [9-β-D-arabinofuranosyl-2-fluoroadenine 5'triphosphate],inhibition of ribonucleotide reductase (in words),[1],much less potent inhibitor
same,concentration inhibiting ribonucleotide reductase relative to 2-chloro-9-(2-deoxy-2-fluoro-β-D-arabinofuranosyl)adenine 5' triphosphate,[1]; ratio of concentrations required,10 fold
"Nc1nc(Br)nc2c1ncn2[C@H]1C[C@H](O)[C@@H](CO)O1 [Y = Br, X = H]",IC50,[2]; CCRF-CEM human cell line,20 nM
same,IC50,[3]; [11],20 nM
same,IC50,[4],900 nM
"Nc1nc(Br)nc2c1ncn2[C@@H]1O[C@H](CO)[C@@H](O)[C@@H]1O [Y = Br, X = OH]",IC50,[3]; [11],4000 nM
same,IC50,[4],3000 nM
"Nc1nc(Cl)nc2c1ncn2[C@H]1C[C@H](O)[C@@H](CO)O1 [Y = Cl, X = H, 2-chloro-2'-deoxyadenosine]",IC50,[2]; CCRF-CEM human cell line,3 nM
same,IC50,[3]; [11],30 nM
same,IC50,[4],70 nM
same,metabolised at 500 µM,[5],> 99%
"Nc1nc(Cl)nc2c1ncn2[C@@H]1O[C@H](CO)[C@@H](O)[C@@H]1O [Y = Cl, X = OH]",IC50,[2]; CCRF-CEM human cell line,10000 nM
same,IC50,[3]; [11],3000 nM
same,IC50,[4],< 3000 nM
"Nc1nc(F)nc2c1ncn2[C@H]1C[C@H](O)[C@@H](CO)O1 [Y = F, X = H, 2-fluoro-2'-deoxyadenosine]",IC50,[2]; CCRF-CEM human cell line,200 nM
same,IC50,[3]; [11],200 nM
same,IC50,[4],900 nM
same,metabolised at 500 µM,[5],> 99%
"Nc1nc(F)nc2c1ncn2[C@@H]1O[C@H](CO)[C@@H](O)[C@@H]1O [Y = F, X = OH, 2-fluoro-9-β-D-arabinofuranosyladenine, reference compound]",IC50,"[2]; Homo sapiens, CCRF-CEM",400 nM
same,IC50,"[3]; Homo sapiens, HEp-2, read-out: Cytotoxicity as IC50, H.Ep.-2",9000 nM
same,IC50,"[6]; Homo sapiens, K562, read-out: Cytotoxicity as IC50, K562",150 nM
same,metabolised at 500 µM,[5],99%
"Nc1nc(Br)nc2c1ncn2[C@@H]1O[C@H](CO)[C@@H](O)[C@@H]1F [compound 3b, 2-Bromo-9-(2-deoxy-2-fluoro-β-D-arabinofuranosyl)-9H-purin-6-amine]",IC50,[2]; CCRF-CEM human cell line,20 nM
same,IC50,[3]; [11],220 nM
same,IC50,[6]; [12],50 nM
same,IC50,[4],260 nM
same,metabolised at 500 µM,[5],45%
same,Log10 change in viable tumor cell population,[7]; [13],-1.0
same,Median % ILS (dying mice only),[7]; [13],+100%
same,Tumor-free Survivors,[7]; [13],0/6
same,Log10 change in viable tumor cell population,[7]; [14],+1.6
same,Median % ILS (dying mice only),[7]; [14],+41%
same,Tumor-free Survivors,[7]; [14],0/6
same,Log10 change in viable tumor cell population,"[7]; 200 mg/kg/dose ip, qd 1-5",+0.1
same,Median % ILS (dying mice only),"[7]; 200 mg/kg/dose ip, qd 1-5",+33%
same,Tumor-free Survivors,"[7]; 200 mg/kg/dose ip, qd 1-5",0/6
"Nc1nc(Cl)nc2c1ncn2[C@@H]1O[C@H](CO)[C@@H](O)[C@@H]1F [compound 3d, 2-Chloro-9-(2-deoxy-2-fluoro-B-D-arabinofuranosyl)-2,0 9H-purin-6-amine]",IC50,[2]; CCRF-CEM human cell line,50 nM
same,IC50,[3]; [11],12 nM
same,IC50,[6]; [12],3 nM
same,IC50,[4],230 nM
same,metabolised at 500 µM,[5],39%
same,Log10 change in viable tumor cell population,[7]; [15],-6.6
same,Median % ILS (dying mice only),[7]; [15],+220%
same,Tumor-free Survivors,[7]; [15],1/6
same,Log10 change in viable tumor cell population,[7]; [16],-2.8
same,Median % ILS (dying mice only),[7]; [16],+118%
same,Tumor-free Survivors,[7]; [16],0/5
same,Log10 change in viable tumor cell population,"[7]; 100 mg/kg/dose ip, qd 1-5",-0.3
same,Median % ILS (dying mice only),"[7]; 100 mg/kg/dose ip, qd 1-5",+38%
same,Tumor-free Survivors,"[7]; 100 mg/kg/dose ip, qd 1-5",0/5
same,Log10 change in viable tumor cell population,"[7]; 200 mg/kg/dose ip, qd 1-5",-1.6
same,Median % ILS (dying mice only),"[7]; 200 mg/kg/dose ip, qd 1-5",+59%
same,Tumor-free Survivors,"[7]; 200 mg/kg/dose ip, qd 1-5",0/3
same,reduction in tumor burden,"[8]; q 6 h×4 on days 1, 5, and 9",1.7 log10 units
same,"reduction in tumor burden, shortfall versus ip drug administration","[8]; q 6 h×4 on days 1, 5, and 9, compared with ip",approximately 2.5 log10 units
same,inhibition of DNA synthesis,[9],inhibits DNA synthesis
same,solubility (in words),[10],greater solubility
"Nc1nc(F)nc2c1ncn2[C@@H]1O[C@H](CO)[C@@H](O)[C@@H]1F [compound 3g, 2-Fluoro-9-(2-deoxy-2-fluoro-β-D-arabinofuranosyl)-9H-purin-6-amine]",IC50,[2]; CCRF-CEM human cell line,140 nM
same,IC50,[3]; [11],340 nM
same,IC50,[6]; [12],300 nM
same,IC50,[4],380 nM
same,metabolised at 500 µM,[5],10%
same,Log10 change in viable tumor cell population,[7]; [16],-0.1
same,Median % ILS (dying mice only),[7]; [16],+81%
same,Tumor-free Survivors,[7]; [16],0/6
same,Log10 change in viable tumor cell population,"[7]; 100 mg/kg/dose ip, qd 1-5",-1.8
same,Median % ILS (dying mice only),"[7]; 100 mg/kg/dose ip, qd 1-5",+63%
same,Tumor-free Survivors,"[7]; 100 mg/kg/dose ip, qd 1-5",0/3
